One molecule from patent US20170202932A1, “METHODS FOR INHIBITING NEURON APOPTOSIS AND NECROSIS” (NEWSOUTH INNOVATIONS PTY LIMITED, priority 2012, published 2017) can be followed below.

Experiment [1] has as its target T1, recombinant mouse TRPC3b channels (Mus musculus, UniProt Q9QZC1, R524G).
T1 construct: Full length mouse TRPC3 transcripts were obtained by PCR; expressed in transfected cells; host or cells: HEK293 cells, stably transfected (pIRES-DsRed2 vector)
T1 sequence (Q9QZC1 75-910 R524G limits assumed): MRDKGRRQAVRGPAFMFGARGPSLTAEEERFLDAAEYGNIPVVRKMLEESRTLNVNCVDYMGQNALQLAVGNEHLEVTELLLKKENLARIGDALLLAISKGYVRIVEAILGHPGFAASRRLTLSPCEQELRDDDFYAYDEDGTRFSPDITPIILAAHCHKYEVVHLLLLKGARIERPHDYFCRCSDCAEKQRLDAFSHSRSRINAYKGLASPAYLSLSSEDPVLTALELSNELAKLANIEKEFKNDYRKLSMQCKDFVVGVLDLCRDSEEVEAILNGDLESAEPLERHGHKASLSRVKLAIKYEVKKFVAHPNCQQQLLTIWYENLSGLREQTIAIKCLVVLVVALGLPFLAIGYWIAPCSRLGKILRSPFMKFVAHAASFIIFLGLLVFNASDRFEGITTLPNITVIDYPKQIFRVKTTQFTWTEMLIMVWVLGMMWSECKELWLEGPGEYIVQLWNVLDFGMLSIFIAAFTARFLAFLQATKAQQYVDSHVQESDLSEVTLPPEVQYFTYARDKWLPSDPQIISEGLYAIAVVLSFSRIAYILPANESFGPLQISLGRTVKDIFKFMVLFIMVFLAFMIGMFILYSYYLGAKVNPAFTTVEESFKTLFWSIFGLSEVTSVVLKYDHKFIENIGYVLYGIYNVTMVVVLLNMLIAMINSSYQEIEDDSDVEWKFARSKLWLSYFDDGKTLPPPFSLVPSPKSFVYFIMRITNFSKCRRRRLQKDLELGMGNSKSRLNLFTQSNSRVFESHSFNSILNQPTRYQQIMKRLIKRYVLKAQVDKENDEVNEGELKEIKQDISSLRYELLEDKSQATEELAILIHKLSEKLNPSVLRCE
Briefly: Whole-cell patch clamp of CCh-activated current, HEK293 cells expressing TRPC3b. The note with it: TRPC3b+CCh (100 μM)+genistein 200 μM pre-incubation; Vh=−50 mV; n=6; CCh alone −235.0±28.7 pA. Format: cell-based. The procedure: (§1) For whole cell patch clamp recordings, HEK293 cells stably expressing recombinant TRPC3 ion channels were grown to 85-95% confluence on a coverslip coated with poly-D-lysine and collagen (both from Sigma-Aldrich, U.S.A.). Recording pipettes were made from borosilicate glass (GC120TF-10, Harvard Apparatus, U.K.). The pipette resistance was at 3-6 MΩ (PC-10, Narishige, Japan). The internal solution had the composition: 130 mM CsCl, 2 mM MgCl2, 10 mM EGTA, 0.3 mM ATP, 0.03 mM GTP, pH at 7.3 adjusted with CsOH. Cells on the coverslip were placed in a microchamber on an inverted microscope (Leica DMIL, Germany) and superfused with HEPES-buffered physiological salt solution (HPSS) containing 120 mM NaCl, 5.4 mM KCl, 2 mM CaCl2, 1.13 mM MgCl2, 10 mM glucose, 20 mM HEPES (pH 7.4) at room temperature.
(§2) Whole cell patch clamp recordings were made following a gigaseal, using an Axopatch 200 patch clamp amplifier (Molecular Devices, U.S.A.) controlled by software (pClamp 10.2, Molecular Devices, U.S.A.). Cell capacitance was cancelled and series resistance was compensated by ˜90%. […] Carbachol (used to activate TRPC3 channels via the endogenously expressed M3 AChR) was purchased from Sigma-Aldrich (U.S.A.). DHPG (—(S)-2-amino-2-(3,5-dihydroxyphenyl)acetic acid), a group I mGluR agonist (Schoepp et al. 1994), was purchased from Tocris Bioscience (U.K.). […]
On the technique in general: The patch-clamp technique gives a direct electrical read-out from membranes.

Experiment [2] has as its target T2, recombinant mouse TRPC3c channels (Mus musculus, UniProt Q9QZC1, DEL811-838).
T2 construct: expressed in transfected cells; host or cells: HEK293 cells, stably transfected (pIRES-DsRed2 vector)
T2 sequence (Q9QZC1 with tags, fused parts or gaps DEL811-838): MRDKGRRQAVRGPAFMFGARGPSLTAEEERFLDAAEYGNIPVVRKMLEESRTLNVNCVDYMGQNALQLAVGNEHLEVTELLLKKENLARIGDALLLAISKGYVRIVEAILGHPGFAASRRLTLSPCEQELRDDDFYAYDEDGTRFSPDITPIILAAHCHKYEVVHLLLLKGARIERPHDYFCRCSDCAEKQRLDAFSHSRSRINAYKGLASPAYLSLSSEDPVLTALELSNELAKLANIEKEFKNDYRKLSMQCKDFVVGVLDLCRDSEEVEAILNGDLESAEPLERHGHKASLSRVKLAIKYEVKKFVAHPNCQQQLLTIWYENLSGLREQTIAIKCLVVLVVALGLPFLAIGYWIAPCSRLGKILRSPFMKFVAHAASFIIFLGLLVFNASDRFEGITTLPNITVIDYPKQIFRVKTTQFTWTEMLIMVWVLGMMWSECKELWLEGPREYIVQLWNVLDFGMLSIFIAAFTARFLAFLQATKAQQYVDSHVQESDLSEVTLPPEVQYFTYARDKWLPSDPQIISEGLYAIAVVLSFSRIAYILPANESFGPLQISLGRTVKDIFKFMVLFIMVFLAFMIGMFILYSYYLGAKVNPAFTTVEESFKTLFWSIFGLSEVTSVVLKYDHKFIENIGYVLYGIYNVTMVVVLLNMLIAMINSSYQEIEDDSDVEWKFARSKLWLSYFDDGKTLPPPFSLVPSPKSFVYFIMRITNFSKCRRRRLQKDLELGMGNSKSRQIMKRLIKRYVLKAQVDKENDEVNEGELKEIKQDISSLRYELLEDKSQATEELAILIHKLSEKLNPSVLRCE
Briefly: Whole-cell patch clamp of CCh-activated current, HEK293 cells expressing TRPC3c. Format: cell-based. The note with it: TRPC3c+CCh (100 μM)+genistein 200 μM pre-incubation; Vh=−50 mV; n=7; CCh alone −809.4±36.9 pA. The protocol: as §1, §2

Each structure is given as a SMILES string.

As for `O=c1c(-c2ccc(O)cc2)coc2cc(O)cc(O)c12` [genistein, 4′, 5,7-trihydroxyisoflavone], the figures for the “mean peak CCh-activated whole-cell inward current” value in experiment [1] and in experiment [2] were −24.8±9.7 pA and −35.4±8.1 pA, respectively.
